The record followed here is patent US20040023998A1, “Novel crystals of 1,3,4-oxadiazole derivatives, process for producing the crystals and medicines containing the same as the active ingredient” (priority 2000, published 2004).

Values after ≈ are worked out from the molar mass of the structure shown.

The text on data set [1]: Moreover, for removing tetrahydrofuran in this Type-1 crystals and obtaining Type-1 crystals, it is necessary to reflux them in ethanol.
Data set [2] can be described thus: Toxicity.
Data set [3] is described as follows: Solubility of compound of the present invention in various solvents (saturated solution, HPLC). Type of data set: physicochemical. The procedure: The compound of the present invention was added to various solvents so that a saturated state was achieved. Each mixture was stirred for 30 seconds by means of a laboratory mixer and then allowed to stand for 4 minutes and 30 seconds. The stirring and standing operations were repeated seven times. The mixture was centrifuged at 3000 rpm for 15 minutes and isoamyl 4-hydroxybenzoate was added as an internal standard to the resulting supernatant. Furthermore, acetonitrile was added to the supernatant to form a sample solution. A portion (8 μL) of each solution was analyzed using high performance liquid chromatography (HPLC) under the following conditions to determine its concentration by the internal standard method, and thereby solubility was calculated. Additionally, pH at the dissolution was measured.
HPLC measuring conditions
Eluent: 20 mmol/L aqueous potassium dihydrogen phosphate solution (pH 8.0, sodium hydroxide)/acetonitrile=65/35
As the buffer (buffer solution) in Table 5, Briton-Robinson Buffer having an ionic strength of 0.2 was used.

A short description of data set [4]: Stability test (storage of solid, residual ratio by HPLC). Type of data set: physicochemical. The note with it: all storage conditions of Table 6. Here is the method: The compound of the present invention (about 50 mg) was weighed in a test tube and stored under the following conditions. The stored sample was analyzed using high performance liquid chromatography (HPLC) to calculate its residual ratio by the internal standard method.
Condition 1: 60° C., sealed, 1 month;
Condition 2: 40° C., open, 75%RH (relative humidity), 3 months;
Condition 3: 40° C., sealed, 6 months;
Condition 4: 25° C., open, 60%RH (relative humidity), 12 months;
Condition 5: 5° C., sealed, 12 months;
The HPLC measurement was carried out under the same conditions as in Example 2 described above.

`CC(C)C(NC(=O)Cn1c(-c2ccccc2)ncc(N)c1=O)C(=O)c1nnc(C(C)(C)C)o1` (racemic) [Type-1 crystals, 2-[5-Amino-6-oxo-2-phenyl-1,6-dihydro-1-pyrimidyl]-N-[1-(2-[5-t-butyl-1,3,4-oxadiazolyl]carbonyl)-2-(R,S)-methylpropyl]acetamide, reference compound]: the “Stability of the form in water” value in data set [1] is listed as “promptly results in precipitation of Type-2 crystals”.
For the compound `CC(C)C(NC(=O)Cn1c(-c2ccccc2)ncc(N)c1=O)C(=O)c1nnc(C(C)(C)C)o1` (racemic) [compound of the present invention, 2-[5-amino-6-oxo-2-phenyl-1,6-dihydro-1-pyrimidyl]-N-[1-(2-[5-t-butyl-1,3,4-oxadiazolyl]carbonyl)-2-(R,S)-methylpropyl]acetamide], in data set [2], the Toxicity entry is given as “sufficiently low toxicity”. For the same compound, the solubility (usually the dissolved amount per volume that the medium holds) at 35 min was found to be 122 µg/mL (≈ 270 µM) in data set [3] (aqueous buffer, thermodynamic from solid, Buffer pH 3.0 (Briton-Robinson, ionic strength 0.2), pH at dissolution 3.0); 104 µg/mL (≈ 230 µM) in data set [3] (aqueous buffer, thermodynamic from solid, Buffer pH 5.0 (Briton-Robinson, ionic strength 0.2), pH at dissolution 5.0); 94 µg/mL (≈ 208 µM) in data set [3] (aqueous buffer, thermodynamic from solid, Buffer pH 7.0 (Briton-Robinson, ionic strength 0.2), pH at dissolution 7.0); 45 µg/mL (≈ 99.4 µM) in data set [3] (aqueous buffer, thermodynamic from solid, Buffer pH 9.0 (Briton-Robinson, ionic strength 0.2), pH at dissolution 8.6); 19100 µg/mL (≈ 42200 µM) in data set [3] (organic solvent or mixture, thermodynamic from solid, solvent: Acetonitrile); 7290 µg/mL (≈ 16100 µM) in data set [3] (organic solvent or mixture, thermodynamic from solid, solvent: Ethanol). Moreover, the solubility at 35 min in data set [3] (organic solvent or mixture, thermodynamic from solid, solvent: Methanol) is 33600 µg/mL (≈ 74300 µM); in data set [3] (organic solvent or mixture, thermodynamic from solid, solvent: Octanol), 710 µg/mL (≈ 1570 µM); in data set [3] (pH 7.3, thermodynamic from solid, solvent: Purified water, pH at dissolution 7.3), 73 µg/mL (≈ 161 µM). In addition, the “Stability (conclusion from Table 6)” value in data set [4] is “sufficiently stable”.
